Test results reported in patent US20140120191A1, “METHOD OF TREATING A DISORDER ASSOCIATED WITH S[…]” (BEECH TREE LABS INC., priority 2011, published 2014).
Entries after “also recorded” stand apart in the source; their conditions may differ.

Tested on: R. equi
Experiment: R. equi intrabronchial challenge model of pneumonia in foals
Assay type: in vivo
Details: SLO 2 IU subcutaneous twice a day without antibiotics
Procedure: Animals: 24 foals (average age 4 +/− days old) were used in this challenge model and two additional foals served as uninfected controls. The foals were raised on a Veterinary Science farm and kept with their mares throughout the study. Foals were evaluated shortly after birth for inclusion in the study using the following criteria; normality in physical examination, absence of lung sounds on auscultation, normal temperature, and unremarkable ultrasound examination of the lungs. None of the foals received anti-rhodococcal plasma or other treatments prior to enrollment in the study. The foals were moved with their dams to individual box stalls in a BSL2 isolation facility. Baseline values for heart rate, respiratory rate, temperature, fibrinogen concentration, and leukocyte count were obtained. […]
After the foals were sedated, a flexible fiberoptic endoscope was used to deliver the bacteria suspended in 35 ml of sterile PBS into both main bronchi. […] The foals were returned to their stalls and dams and monitored daily for changes in rectal temperature, respiration, and pulse as determined by physical exam and auscultation of the lungs. […] Clinical signs recorded included lung auscultations, overall attitude, appetite, resting respiratory rate and pulse. […] Daily observation of attitude, appetite, lung auscultation were scored (0-4) and combined to generate an overall daily score for each foal. […]

streptolysin O [SLO alone]
treatment effect / clinical course: deteriorated rapidly and required early euthanasia; also recorded: no treatment effect
